# Data taken from patent publication US11807835B2, “Detergent compositions containing a stabilized enzyme by phosphonates” (ECOLAB USA INC., priority 2016, dated 2023).
# How the values were obtained:
# [1] = tested on: enzyme (protease, amylase, lipase); experiment: Overall effects of phosphonates on enzyme activity (Table 3); type: biochemical; details: overall effect of the phosphonate on enzyme activity in the detergent use solution
# Method in brief: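 Protease, amylase and lipase activity in detergent use solutions with varied phosphonate levels, 4000 ppm in 5 GPG water at 120° F., sampled up to 4 h and frozen at −80° C. before assay. Activity given as % retention relative to t=0 (100%).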
# amylase = experiment: Amylase activity retention in detergent use solution (4000 ppm, 5 GPG water; ethylidene substrate EPS, HEPES buffer pH 8.0); type: biochemical
# Method in brief: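 Detergent use solution at 4000 ppm in 5 GPG water held at 120° F.; aliquots taken up to 4 h, flash-frozen, then assayed with p-nitrophenyl valerate in TRIS pH 8.0 (lipase) or EPS substrate in HEPES pH 8.0 (amylase). Retention given as % activity relative to t=0.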
substance,measurement,setting,value
Diglycolamine phosphonate [DGAP],Stability (effects on enzyme activity),[1],Yes
same,Relative Amylase Enzyme Activity,"amylase; All Ash formula, phosphonate 0.3 wt-%, use solution at 120° F., time 0 min",100.00%
same,Relative Amylase Enzyme Activity,"amylase; All Ash formula, phosphonate 0.3 wt-%, use solution at 120° F., time 5 min",89.94%
same,Relative Amylase Enzyme Activity,"amylase; All Ash formula, phosphonate 0.3 wt-%, use solution at 120° F., time 10 min",87.50%
same,Relative Amylase Enzyme Activity,"amylase; All Ash formula, phosphonate 0.3 wt-%, use solution at 120° F., time 20 min",88.87%
same,Relative Amylase Enzyme Activity,"amylase; All Ash formula, phosphonate 0.3 wt-%, use solution at 120° F., time 40 min",86.87%
same,Relative Amylase Enzyme Activity,"amylase; All Ash formula, phosphonate 0.3 wt-%, use solution at 120° F., time 60 min",82.06%
same,Relative Amylase Enzyme Activity,"amylase; All Ash formula, phosphonate 0.3 wt-%, use solution at 120° F., time 90 min",81.79%
same,Relative Amylase Enzyme Activity,"amylase; All Ash formula, phosphonate 0.3 wt-%, use solution at 120° F., time 120 min",75.74%
same,Relative Amylase Enzyme Activity,"amylase; All Ash formula, phosphonate 0.3 wt-%, use solution at 120° F., time 150 min",79.71%
same,Relative Amylase Enzyme Activity,"amylase; All Ash formula, phosphonate 0.3 wt-%, use solution at 120° F., time 180 min",65.75%
same,Relative Amylase Enzyme Activity,"amylase; All Ash formula, phosphonate 0.3 wt-%, use solution at 120° F., time 210 min",71.27%
same,Relative Amylase Enzyme Activity,"amylase; All Ash formula, phosphonate 0.3 wt-%, use solution at 120° F., time 240 min",70.12%
same,amylase stability in all ash formula,"amylase; all ash formula, versus same composition with PBTC or HEDP without amine(s), FIG. 4D",more stable
same,Relative Amylase Enzyme Activity,"amylase; base formula, phosphonate 0.3 wt-%, use solution at 120° F., time 0 min",39.01%
same,Relative Amylase Enzyme Activity,"amylase; base formula, phosphonate 0.3 wt-%, use solution at 120° F., time 5 min",100.00%
same,Relative Amylase Enzyme Activity,"amylase; base formula, phosphonate 0.3 wt-%, use solution at 120° F., time 10 min",113.48%
same,Relative Amylase Enzyme Activity,"amylase; base formula, phosphonate 0.3 wt-%, use solution at 120° F., time 20 min",112.07%
same,Relative Amylase Enzyme Activity,"amylase; base formula, phosphonate 0.3 wt-%, use solution at 120° F., time 40 min",110.36%
same,Relative Amylase Enzyme Activity,"amylase; base formula, phosphonate 0.3 wt-%, use solution at 120° F., time 60 min",109.99%
same,Relative Amylase Enzyme Activity,"amylase; base formula, phosphonate 0.3 wt-%, use solution at 120° F., time 90 min",118.04%
same,Relative Amylase Enzyme Activity,"amylase; base formula, phosphonate 0.3 wt-%, use solution at 120° F., time 120 min",110.39%
same,Relative Amylase Enzyme Activity,"amylase; base formula, phosphonate 0.3 wt-%, use solution at 120° F., time 150 min",111.92%
same,Relative Amylase Enzyme Activity,"amylase; base formula, phosphonate 0.3 wt-%, use solution at 120° F., time 180 min",112.24%
same,Relative Amylase Enzyme Activity,"amylase; base formula, phosphonate 0.3 wt-%, use solution at 120° F., time 210 min",115.96%
same,Relative Amylase Enzyme Activity,"amylase; base formula, phosphonate 0.3 wt-%, use solution at 120° F., time 240 min",110.74%
same,Relative Amylase Enzyme Activity,"amylase; base formula, phosphonate 0.6 wt-%, use solution at 120º F., time 0 min",100.00%
same,Relative Amylase Enzyme Activity,"amylase; base formula, phosphonate 0.6 wt-%, use solution at 120º F., time 5 min",102.43%
same,Relative Amylase Enzyme Activity,"amylase; base formula, phosphonate 0.6 wt-%, use solution at 120º F., time 10 min",95.89%
same,Relative Amylase Enzyme Activity,"amylase; base formula, phosphonate 0.6 wt-%, use solution at 120º F., time 20 min",99.40%
same,Relative Amylase Enzyme Activity,"amylase; base formula, phosphonate 0.6 wt-%, use solution at 120º F., time 40 min",97.26%
same,Relative Amylase Enzyme Activity,"amylase; base formula, phosphonate 0.6 wt-%, use solution at 120º F., time 60 min",100.23%
same,Relative Amylase Enzyme Activity,"amylase; base formula, phosphonate 0.6 wt-%, use solution at 120º F., time 90 min",95.37%
same,Relative Amylase Enzyme Activity,"amylase; base formula, phosphonate 0.6 wt-%, use solution at 120º F., time 120 min",102.17%
same,Relative Amylase Enzyme Activity,"amylase; base formula, phosphonate 0.6 wt-%, use solution at 120º F., time 150 min",102.37%
same,Relative Amylase Enzyme Activity,"amylase; base formula, phosphonate 0.6 wt-%, use solution at 120º F., time 180 min",101.89%
same,Relative Amylase Enzyme Activity,"amylase; base formula, phosphonate 0.6 wt-%, use solution at 120º F., time 210 min",102.69%
same,Relative Amylase Enzyme Activity,"amylase; base formula, phosphonate 0.6 wt-%, use solution at 120º F., time 240 min",105.89%
same,Relative Amylase Enzyme Activity,"amylase; base formula, phosphonate at 0.1% elemental phosphorus level, use solution at 120º F., time 0 min",100.00%
same,Relative Amylase Enzyme Activity,"amylase; base formula, phosphonate at 0.1% elemental phosphorus level, use solution at 120º F., time 5 min",98.51%
same,Relative Amylase Enzyme Activity,"amylase; base formula, phosphonate at 0.1% elemental phosphorus level, use solution at 120º F., time 10 min",108.49%
same,Relative Amylase Enzyme Activity,"amylase; base formula, phosphonate at 0.1% elemental phosphorus level, use solution at 120º F., time 40 min",97.68%
same,Relative Amylase Enzyme Activity,"amylase; base formula, phosphonate at 0.1% elemental phosphorus level, use solution at 120º F., time 60 min",97.62%
same,Relative Amylase Enzyme Activity,"amylase; base formula, phosphonate at 0.1% elemental phosphorus level, use solution at 120º F., time 90 min",99.36%
same,Relative Amylase Enzyme Activity,"amylase; base formula, phosphonate at 0.1% elemental phosphorus level, use solution at 120º F., time 120 min",92.67%
same,Relative Amylase Enzyme Activity,"amylase; base formula, phosphonate at 0.1% elemental phosphorus level, use solution at 120º F., time 150 min",98.24%
same,Relative Amylase Enzyme Activity,"amylase; base formula, phosphonate at 0.1% elemental phosphorus level, use solution at 120º F., time 180 min",93.89%
same,Relative Amylase Enzyme Activity,"amylase; base formula, phosphonate at 0.1% elemental phosphorus level, use solution at 120º F., time 210 min",107.33%
same,Relative Amylase Enzyme Activity,"amylase; base formula, phosphonate at 0.1% elemental phosphorus level, use solution at 120º F., time 240 min",103.75%
